Reference: article PMC2151567 (The Journal of General Physiology, 2006)

Target: mouse BK channel (mSlo) (Mus musculus, UniProt Q08460)
Type: cell-based

Chain of mouse BK channel (mSlo) (Q08460 whole entry): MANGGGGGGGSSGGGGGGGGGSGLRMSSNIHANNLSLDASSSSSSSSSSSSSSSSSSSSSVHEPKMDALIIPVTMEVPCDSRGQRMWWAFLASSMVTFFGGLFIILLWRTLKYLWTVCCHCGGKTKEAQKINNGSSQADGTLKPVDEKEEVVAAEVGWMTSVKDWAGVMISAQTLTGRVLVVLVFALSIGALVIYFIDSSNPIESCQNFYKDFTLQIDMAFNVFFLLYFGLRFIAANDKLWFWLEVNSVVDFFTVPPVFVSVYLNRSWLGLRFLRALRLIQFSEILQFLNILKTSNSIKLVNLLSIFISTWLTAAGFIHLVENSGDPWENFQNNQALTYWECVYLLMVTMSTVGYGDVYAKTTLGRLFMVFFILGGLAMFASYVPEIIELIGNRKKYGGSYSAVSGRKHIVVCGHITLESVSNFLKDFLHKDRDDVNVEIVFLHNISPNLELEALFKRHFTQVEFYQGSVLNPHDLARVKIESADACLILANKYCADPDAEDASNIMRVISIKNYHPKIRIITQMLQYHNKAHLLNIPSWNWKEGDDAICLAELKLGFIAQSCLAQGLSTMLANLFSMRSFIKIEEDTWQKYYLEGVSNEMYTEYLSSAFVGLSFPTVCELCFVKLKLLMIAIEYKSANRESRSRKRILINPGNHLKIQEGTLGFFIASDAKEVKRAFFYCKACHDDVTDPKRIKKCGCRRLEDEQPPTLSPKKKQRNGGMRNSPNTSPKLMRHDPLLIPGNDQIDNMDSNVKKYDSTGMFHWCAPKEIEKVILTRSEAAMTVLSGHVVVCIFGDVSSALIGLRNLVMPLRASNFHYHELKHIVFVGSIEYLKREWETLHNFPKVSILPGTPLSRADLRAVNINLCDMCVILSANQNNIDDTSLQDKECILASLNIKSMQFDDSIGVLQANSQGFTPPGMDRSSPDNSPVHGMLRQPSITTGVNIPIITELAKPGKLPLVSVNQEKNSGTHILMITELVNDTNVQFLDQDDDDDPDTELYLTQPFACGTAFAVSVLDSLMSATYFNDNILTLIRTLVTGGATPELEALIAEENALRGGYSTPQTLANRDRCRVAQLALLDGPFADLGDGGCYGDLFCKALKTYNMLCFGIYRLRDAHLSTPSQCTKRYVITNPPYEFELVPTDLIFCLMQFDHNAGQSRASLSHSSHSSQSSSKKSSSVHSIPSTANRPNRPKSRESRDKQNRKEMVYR

## CCCC[N+](CCCC)(CCCC)CCCC [TBA, tetrabutylammonium]
  Kd: 628 µM
